Results from patent publication US20250332173A1, “COMPOUNDS AND METHODS FOR MODULATING NUCLEIC ACID SPLICING” (REMIX THERAPEUTICS INC., priority 2021, published 2025).
Read-outs that look alike come from different tables or passages of the source.

What was measured:
MYB = assay: HiBiT protein abundance assay, MYB HiBiT K562 cell line; format: cell-based, human; details: 24 hours, top dose 10 μM
Procedure: (§1) Compounds described herein were used to screen for effects on quantitative protein abundance using a HiBit assay system (Promega). Quantitative protein abundance was determined by measuring the protein levels of HiBit-tagged protein targets expressed in cell culture via luminescence using the Nano-Glo HiBiT Lytic Detection System, which uses a split complementation assay format to reconstitute NanoBiT enzyme to generate a luminescent signal. A protein abundance assay was developed such that endogenous protein targets could be modified with the HiBiT peptide tag and their abundance could be assessed after compound treatment. Briefly, K562 cell lines containing a HiBiT-modification were treated with various compounds described herein (e.g., compounds of Formulas (I), (II), (III), (IV), (V), (VI), (VII), (VIII), or (IX)). After treatment for 24 hours, the protein abundance of a specific target was determined by measuring luminescence.
(§2) • Promega Nano-Glo HiBiT Lytic Detection System (cat #N3030) • Corning 384-well TC-treated microplates (cat #3570) • Synthego Engineered Cells Knock-In Clones
(§3) Cells were maintained in IMDM with 10% FBS. Before the assay, cells were diluted with […] growth media (IMDM+[…] media) and were seeded in a 384-well plate at a density of 10,000 cells/well (for each cell line listed in Table 5). Each compound was prepared as a 10-point 3-fold serial dilution in DMSO with the top dose at a final concentration of 10 μM in the well. Unmodified K562 cells were added at the previously specified density with DMSO to serve as an assay baseline and positive control (PC) and DMSO only with the respective modified cell lines was added to the negative control (NC) columns. Final DMSO concentration was kept at or below 0.25%. Treated cell plates were placed in an incubator at 37° C. with […] for 24 hours. After 24 hours, 25 μL of Complete HiBit Lytic reagent was added to each well at room temperature (e.g. one plate requiring 10 mL Lytic Buffer, 100 μL LgBiT Protein, 200 μL Lytic Substrate), shaken for 5 minutes at 600 RPM, then left to sit for 10 minutes for signal to stabilize before reading on a Spark Cyto plate reader (Tecan) with a 500 ms measurement time.
(§4) To determine compound effects on protein abundance of each target in Table 5, the percent response for each respective cell line was calculated at each compound concentration as follows:
(§5) For the normalized response at each concentration, a four-parameter logistical regression was fit to the data and the response was interpolated at the […] to determine a concentration for protein abundance at […] the untreated control.

Target C [1] = assay: HiBiT protein abundance assay, Target C HiBiT K562 cell line; format: cell-based; details: Homo sapiens; HiBiT lytic detection, modified K562 cells, 24 hours, top dose 10 μM; read-out: Effect on protein abundance, Target C (IC50)
Procedure: as §2, §3, §4, §5

HTT = assay: HiBiT protein abundance assay, HTT HiBiT K562 cell line; format: cell-based, human; details: 24 hours, top dose 10 μM
Procedure: as §1, §2, §3, §4, §5

[2] = test system: K562 (human chronic myelogenous leukemia) cells; assay: Cell Titer Glo 2.0 cell viability assay; format: cell-based; details: Homo sapiens, K562, 72 h, read-out: K562 GI50
MYB mRNA = assay: RT-qPCR splicing assay, MYB canonical junction (CJ) and alternative junction (AJ) mRNA; format: cell-based, human; details: Homo sapiens
Method in brief: (§6)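 A673 or K562 cells were treated for 24 h at 37 °C with an 11-point 3-fold compound dilution series (top final concentration 10 uM, DMSO ≤0.25%). After lysis, one-step TaqMan RT-qPCR quantified junction transcripts, normalized to PPIA for A673 or to GAPDH/GUSB for K562.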

HTT mRNA = assay: RT-qPCR splicing assay, HTT canonical junction (CJ) and alternative junction (AJ) mRNA; format: cell-based, human; details: Homo sapiens
Method in brief: as §6

SMN2 mRNA = assay: RT-qPCR splicing assay, SMN2 canonical junction (CJ) mRNA; format: cell-based, human; details: Homo sapiens, read-out: SMN2 (decrease in CJ mRNA levels, IC50)
Method in brief: (§7)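 A673 or K562 cells were treated for 24 h at 37 °C with compound in 11-point 3-fold dilution (top 10 uM final, DMSO ≤0.25%). Lysates then went to one-step RT-qPCR measuring canonical-junction mRNA, normalized to GAPDH, GUSB or PPIA.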

Target C [3] = assay: RT-qPCR splicing assay panel, Target C canonical junction (CJ) mRNA; format: cell-based, human; details: Homo sapiens, read-out: Target C (decrease in CJ mRNA levels, IC50)
Method in brief: as §7

Target C [4] = assay: HiBiT protein abundance assay, Target C (Promega Nano-Glo HiBiT Lytic Detection System, knock-in K562 cell line); format: cell-based, human; details: Homo sapiens, K562, 24 h, read-out: Effect on protein abundance, Target C (IC50 category)
Procedure: as §2, §3, §4, §5

[5] = HiBiT lytic detection, modified K562 cells, read-out: Effect on protein abundance, MYB (IC50)
[6] = HiBiT lytic detection, modified K562 cells, read-out: Effect on protein abundance, HTT (IC50)
[7] = K562 cells, 72 hours, Cell Titer Glo 2.0
[8] = canonical junction qPCR panel, Table 5, read-out: MYB (decrease in CJ mRNA levels, IC50)
[9] = decrease in MYB canonical junction (CJ) mRNA, RT-qPCR, read-out: MYB CJ IC50
[10] = increase in MYB alternative junction (AJ) mRNA, RT-qPCR, read-out: MYB AJ AC50
[11] = decrease in HTT canonical junction (CJ) mRNA, RT-qPCR, read-out: HTT CJ IC50
[12] = increase in HTT alternative junction (AJ) mRNA, RT-qPCR, read-out: HTT AJ AC50
[13] = canonical junction qPCR panel, Table 5, read-out: HTT (decrease in CJ mRNA levels, IC50)
[14] = canonical junction qPCR panel, Table 5

SMILES	IC50 (MYB; [5]) [µM]	IC50 (Target C [1]) [µM]	IC50 (HTT; [6]) [µM]	GI50 [2, 7] [µM]	IC50 (MYB mRNA; [8]) [nM]	IC50 (MYB mRNA; [9]) [nM]	IC50 (HTT mRNA; [11]) [nM]	IC50 (HTT mRNA; [13]) [nM]	IC50 (SMN2 mRNA; [14]) [µM]	AC50 (MYB mRNA; [10]) [nM]	AC50 (HTT mRNA; [12]) [nM]	other results
Cc1cn2nc(-c3cnc4c(=O)n(C5CCNCC5)ncc4c3)cc(C)c2n1 [Compound 1411]	1 to 10	1 to 10	1 to 10	1 to 10	–	–	–	–	–	–	–	–
Cc1cn2nc(-c3ccc4c(=O)n(C5CCN(C6CCC6)C6(CC6)C5)ncc4n3)cc(C)c2n1 (centres unmarked) [Compound 1540, 6-(4-cyclobutyl-4-azaspiro[2.5]octan-7-yl)-2-(2,8-dimethylimidazo[1,2-b]pyridazin-6-yl)pyrido[2,3-d]pyridazin-5-one]	–	–	–	–	–	–	–	–	–	–	–	IC50 (MYB mRNA; read-out: MYB (decrease in CJ mRNA levels, IC50)): 100 to 1000 nM; AC50 (MYB mRNA; read-out: MYB AJ AC50 (nM)): 100 to 1000 nM; IC50 (MYB mRNA; read-out: MYB CJ IC50 (nM)): 100 to 1000 nM; IC50 (MYB; read-out: Effect on protein abundance, MYB (IC50 category), HiBiT K562 cell line): 0.1 to 1 µM; IC50 (HTT mRNA; read-out: HTT (decrease in CJ mRNA levels, IC50)): 100 to 1000 nM; AC50 (HTT mRNA; read-out: HTT AJ AC50 (nM)): 100 to 1000 nM; IC50 (HTT mRNA; read-out: HTT CJ IC50 (nM)): 100 to 1000 nM; IC50 (SMN2 mRNA): < 0.1 µM; IC50 (Target C [3]): 0.1 to 1 µM; IC50 (Target C [4]): 0.1 to 1 µM; IC50 (HTT; read-out: Effect on protein abundance, HTT (IC50 category), HiBiT K562 cell line): 0.1 to 1 µM; GI50 [2]: 0.1 to 1 µM
Cn1cc2cc(-n3cnc4ccc(C5=CCNCC5)cc4c3=O)ccc2n1 [Compound 2151]	> 10	> 10	> 10	–	100 to 1000	> 10000	> 10000	> 10000	> 10	100 to 1000	> 10000	–

More lines, main results first:

IC50 (MYB; [5]) [µM]	IC50 (Target C [1]) [µM]	IC50 (HTT; [6]) [µM]	GI50 [2, 7] [µM]	IC50 (MYB mRNA; [8]) [nM]	IC50 (MYB mRNA; [9]) [nM]	IC50 (HTT mRNA; [11]) [nM]	IC50 (HTT mRNA; [13]) [nM]	IC50 (SMN2 mRNA; [14]) [µM]	SMILES	AC50 (MYB mRNA; [10]) [nM]	AC50 (HTT mRNA; [12]) [nM]	other results
0.1 to 1	< 0.1	< 0.1	0.1 to 1	–	–	–	–	–	Cn1cc2cc(-c3cc4ncn(C5CCNCC5)c(=O)c4cn3)c(O)c(F)c2n1 [Compound 1276]	–	–	–
> 10	> 10	> 10	–	> 10000	> 10000	> 10000	> 10000	> 10	CN1CCN(c2ccc3ncn(-c4ccc5nn(C)cc5c4)c(=O)c3c2)CC1 [Compound 2154]	> 10000	> 10000	–
> 10	> 10	> 10	–	> 10000	> 10000	> 10000	> 10000	> 10	Cn1cc2cc(-n3cnc4ccc(N5CCNCC5)cc4c3=O)ccc2n1 [Compound 2155]	> 10000	> 10000	–
> 10	> 10	> 10	1 to 10	–	–	> 10000	> 10000	> 10	Cc1cc(-c2nc3cc(N4CCN(C)CC4)ccc3c(=O)[nH]2)cc2cn(C)nc12 [Compound 2214]	–	> 10000	IC50 (Target C [3]; [14]): > 10 µM
